Measured values taken from PubChem BioAssay (NCI).
Several values for one entry are separate records, joined by “and”; a condition that tells them apart may be missing. Identical values can stand only once.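 Grown in 96-well plates, cells were treated for 48 hours with each compound at five concentrations. Insufficient inhibition: endpoint recorded as highest concentration tested. GI50 marks 50% less growth. At the TGI there is no net growth.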

Legend:
Experiment in all cases: growth of human tumour cells (NCI), 48 h
HCT-116 colon = test system: HCT-116 colon
OVCAR-3 ovarian = test system: OVCAR-3 ovarian
HT29 colon = test system: HT29 colon
MCF7 breast = test system: MCF7 breast
PC-3 prostate = test system: PC-3 prostate
MDA-MB-231 breast = test system: MDA-MB-231 breast
M14 melanoma = test system: M14 melanoma
MALME-3M melanoma = test system: MALME-3M melanoma
T-47D breast = test system: T-47D breast
ACHN renal = test system: ACHN renal

Row | Structure (SMILES) | TGI (HCT-116 colon) | TGI (OVCAR-3 ovarian) | TGI (HT29 colon) | TGI (MCF7 breast) | TGI (PC-3 prostate) | TGI (MDA-MB-231 breast) | TGI (M14 melanoma) | TGI (MALME-3M melanoma) | TGI (T-47D breast) | TGI (ACHN renal) | GI50 (HCT-116 colon) | GI50 (OVCAR-3 ovarian) | GI50 (HT29 colon) | GI50 (MCF7 breast) | GI50 (PC-3 prostate) | GI50 (MDA-MB-231 breast) | GI50 (M14 melanoma) | GI50 (MALME-3M melanoma) | GI50 (T-47D breast) | GI50 (ACHN renal)
1 | CSC(=S)NN=C1CCCCC1 | > 100 µM | > 100 µM | > 100 µM | > 100 µM | > 100 µM | > 100 µM | 38.7 µM | 44.8 µM | > 100 µM | 56 µM |  |  |  |  |  |  |  |  |  | 
2 | c1ccc(-c2cc(-c3cc(-c4ccccn4)[nH]n3)n[nH]2)nc1 | > 100 µM | > 100 µM | > 100 µM | > 100 µM | > 100 µM | > 100 µM | > 100 µM | > 100 µM | > 100 µM | > 100 µM |  |  |  |  |  |  |  |  |  | 
3 | O=[N+]([O-])c1ccc(N(CCO)CCO)c2c1no[n+]2[O-] | 3.03 µM | 3.91 µM | 10.7 µM | 10.2 µM | 15.9 µM | 14.3 µM | 2.76 µM | 4.64 µM | 5.46 µM | 5.12 µM | 1.1 µM | 1.51 µM | 1.84 µM | 1.21 µM | 1.57 µM | 2.29 µM | 1.22 µM | 1.57 µM | 1.36 µM | 0.768 µM
4 | O=C(c1cccs1)c1c(C(F)(F)F)n([O-])c2cc(F)c(F)cc2[n+]1=O | 8.01 µM | 4.14 µM | 50 µM | 15.4 µM | 4.82 µM | 3.32 µM | 6.6 µM | 1.52 µM | 5.96 µM | 1.4 µM | 1.82 µM | 1.66 µM | 9.5 µM | 1.31 µM | 2.62 µM | 1 µM | 2.48 µM | 0.79 µM | 2.25 µM | 0.419 µM
5 | CN(C)CCCC1(c2ccc(F)cc2)OCc2cc(-c3ccc4cc[nH]c4c3)ccc21 (centres undefined) | 3.57 µM | 3.35 µM | 5.93 µM | 3.24 µM | 5.36 µM | 3.22 µM | 3.82 µM | 3.32 µM | 5.17 µM | 4.82 µM | 1.88 µM | 1.74 µM | 2.33 µM | 1.65 µM | 2.17 µM | 1.65 µM | 1.88 µM | 1.71 µM | 2.01 µM | 2.12 µM
6 | N#CC1=C(N)Oc2c(sc3c(F)cccc23)C1c1ccc([N+](=O)[O-])cc1 (centres undefined) | 1.33 µM | 1.06 µM | 1.47 µM | 1.54 µM | 1.71 µM | 1.21 µM | 0.645 µM | 2.17 µM | 2.86 µM | 2.31 µM | 0.169 µM | 0.185 µM | 0.323 µM | 0.0367 µM | 0.241 µM | 0.215 µM | 0.111 µM | 0.36 µM | 0.254 µM | 0.407 µM
7 | NC(=O)c1c(OCc2c(F)cc(Br)cc2F)nsc1NC(=O)NCCCCN1CCCC1 | 8.41 µM | 4.52 µM | 6.77 µM | > 10 µM | > 10 µM | 5.02 µM | 3.46 µM | 3.41 µM | > 10 µM | 5.25 µM | 2.22 µM | 1.81 µM | 1.46 µM | 1.99 µM | 3.14 µM | 1.55 µM | 1.6 µM | 1.73 µM | 1.18 µM | 1.18 µM
8 | O=c1cccc(C#CCCCCOC2CCCO2)o1 (centres undefined) | > 23.2 µM | 27.1 µM | > 60.5 µM | > 100 µM | > 54.6 µM | 51.5 µM | > 27.9 µM | 47 µM | > 48.8 µM | 60.5 µM | 6.39 µM | 11.2 µM | 16.5 µM | 8.73 µM | 6.73 µM | 15.4 µM | 9.49 µM | 16.5 µM | 22.7 µM | 27.5 µM
9 | COc1cc2cc(C(=O)O)[nH]c2cc1OCc1ccccc1 | > 100 µM | > 100 µM | > 100 µM | > 100 µM | > 100 µM | > 100 µM | > 100 µM | 12.2 µM | > 100 µM | > 100 µM | > 100 µM | > 100 µM | > 100 µM | 93.2 µM | > 100 µM | > 100 µM | > 100 µM | 2.97 µM | > 100 µM | > 100 µM
10 | CS(=O)(=O)c1ccc(C(F)(F)F)cc1NC(=O)Nc1cnc(Oc2ccc(-c3cc(Cl)cnc3N)cc2)nc1 | 4.82 µM | 4.67 µM | 7.52 µM | 7.35 µM | 6.23 µM | 3.79 µM | 4.8 µM | 5.29 µM | 7.7 µM | 6.32 µM | 2.17 µM | 2.08 µM | 2.24 µM | 2.18 µM | 2.05 µM | 1.72 µM | 2.02 µM | 2.05 µM | 2.05 µM | 1.98 µM
11 | O=C1Nc2ccccc2SC1C1SC(=S)N(Cc2ccccc2)C1=O (centres undefined) | 9.28 µM | 6.31 µM | 39.8 µM | 14.4 µM | > 43 µM | 12.9 µM | 19.8 µM | > 61.5 µM | 21.1 µM | 20.3 µM | 2.45 µM | 2.37 µM | 3.98 µM | 1.21 µM | 5.74 µM | 3.65 µM | 4.6 µM | 15.9 µM | 0.815 µM | 7.41 µM
12 | Cc1cc(N2CCN(C)CC2)nc(NC2CCCC(Nc3ccnc4cc(Cl)ccc34)C2)n1 (centres undefined) | 3.74 µM | 5.75 µM | 6.16 µM | 4.45 µM | 11.4 µM | 4.25 µM | 3.46 µM | 3.45 µM | 4.6 µM | 3.51 µM | 1.46 µM | 2.25 µM | 2.14 µM | 1.39 µM | 3.35 µM | 1.78 µM | 1.7 µM | 1.82 µM | 1.91 µM | 1.86 µM
13 | O=C1C(Nc2ccccn2)=C(I)C(=O)c2ncccc21 | 1.61 µM | 1.6 µM | 8.48 µM | 2.07 µM | 5.12 µM | 4.86 µM | 2.6 µM | 2.54 µM | 3.82 µM | 4.49 µM | 0.372 µM | 0.378 µM | 2.75 µM | 0.396 µM | 1.75 µM | 1.53 µM | 1.18 µM | 1.27 µM | 1.36 µM | 0.403 µM
14 | C=C1CC2(OC1=O)c1ccccc1CCc1ccccc12 | 2.75 µM | 3.74 µM | 3.6 µM | 16.2 µM | 27.4 µM | 21.2 µM | 3.91 µM | 4.25 µM | 3.6 µM | 3.33 µM |  |  |  |  |  |  |  |  |  | 
15 | C=CCSc1n[nH]c(-c2cccs2)n1 | > 100 µM | > 100 µM | > 100 µM | > 100 µM | > 100 µM | > 100 µM | > 100 µM | > 100 µM | > 100 µM | > 100 µM | > 100 µM | > 100 µM | > 100 µM | > 100 µM | > 100 µM | > 100 µM | > 100 µM | > 100 µM | > 100 µM | > 100 µM
16 | CCN(C)S(=O)(=O)Nc1cccc(Nc2ncnc3cc(NC(=O)CCl)ccc23)c1Cl | 5.04 µM | 7.8 µM | 4.83 µM | 8.33 µM | 8.32 µM | 7.49 µM | 7.34 µM | 5.62 µM | 13.2 µM | 7.67 µM | 1.07 µM | 3.76 µM | 1.33 µM | 1.11 µM | 2.97 µM | 2.59 µM | 1.77 µM | 1.42 µM | 5.01 µM | 3.38 µM
17 | O=C(Nc1ccc(-n2cc(-c3ccncc3)c(-c3ccc(Cl)c(O)c3)n2)cc1)c1cc(Cl)cc(Cl)c1 | > 100 µM | > 100 µM | > 23.6 µM | > 100 µM | > 100 µM | 4.01 µM | 6.67 µM | 8.81 µM | > 100 µM | > 100 µM | 2.69 µM | > 100 µM | 2.68 µM | 6.21 µM | 3.87 µM | 0.802 µM | 1.95 µM | 2.56 µM | > 100 µM | 10.4 µM
18 | C=CC(=O)Nc1cc2c(Nc3ccc(OCc4ccccn4)c(Cl)c3)ncnc2cc1OCCN1CCOCC1 | 14.5 µM | 29.3 µM | > 100 µM | > 100 µM | > 100 µM | 34.2 µM | 19.6 µM | 42.1 µM | > 100 µM | > 100 µM | 2.99 µM | 1.16 µM | 4.04 µM |  | 4.28 µM | 2.17 µM | 4.18 µM | 11.2 µM | < 0.0181 µM | 0.201 µM
19 | CC/C(=C(\c1ccc(O)cc1)c1ccc(OCCNC)cc1)c1ccccc1 | 2.98 µM and 2.95 µM and 3.22 µM | 4.11 µM and 3.16 µM and 3.9 µM | 3.39 µM and 2.92 µM and 3.46 µM | 2.84 µM and 2.83 µM and 2.81 µM | 5.92 µM and 4.85 µM and 5.53 µM | 4.31 µM and 3.52 µM and 3.22 µM | 3.25 µM and 3.24 µM and 3.63 µM | 3.49 µM and 3.29 µM and 3.5 µM | 3.83 µM and 3.43 µM and 4.01 µM | 4.85 µM and 3.48 µM and 4.1 µM | 1.61 µM and 1.54 µM and 1.73 µM | 2.09 µM and 1.72 µM and 1.97 µM | 1.71 µM and 1.55 µM | 0.788 µM and 0.427 µM | 1.84 µM and 1.77 µM and 2.25 µM | 1.89 µM and 1.65 µM and 1.61 µM | 1.8 µM and 1.75 µM and 1.86 µM | 1.76 µM and 1.66 µM and 1.82 µM | 1.3 µM and 1.21 µM and 1.25 µM | 2.11 µM and 1.65 µM and 1.94 µM
20 | NC(N)=NC(N)=NCCc1ccccc1 | > 100 µM | > 100 µM | > 100 µM | > 100 µM | > 100 µM | > 100 µM | > 100 µM | > 100 µM | > 100 µM | > 100 µM | 92.5 µM and 36.3 µM | 83.9 µM and > 100 µM | > 100 µM | > 100 µM | 45.3 µM and 60.3 µM | > 100 µM | > 100 µM | 72 µM | 84.8 µM and > 100 µM | > 100 µM
